# From US10968203B2, “Pyrimidinyl-pyridyloxy-naphthyl compounds and methods of treating IRE1-related diseases and disorders” (Genentech, Inc., priority 2017, dated 2021)
# Structures can show the parent of a compound that is named as a salt.
# Test system: XBP1s-luc 293 LUC
# Assay: cellular PD assay, XBP1s-LUC reporter (Example 903)
# Assay type: cell-based
# Conditions: Table 2; read-out: XBP1s-luc 293 LUC (IC50)
# Method in brief: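 A luciferase fusion, in frame and expressed only when the XBP1 transcript is spliced, served as the readout of cellular IRE1α activity in an XBP1-Luc reporter line.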
row,Structure (SMILES),IC50 [nM]
1,"Cc1ccc2c(NS(=O)(=O)CCC(F)F)c(F)ccc2c1Oc1ncccc1-c1ccnc(N[C@@H]2CNC[C@H](C)C2)n1 [Example 472, 3,3-Difluoro-N-(2-fluoro-6-methyl-5-((3-(2-(((3S,5R)-5-methylpiperidin-3-yl)amino)pyrimidin-4-yl)pyridin-2-yl)oxy)naphthalen-1-yl)propane-1-sulfonamide]",8
2,"Cc1ccc2c(NS(=O)(=O)Cc3ccccc3F)c(F)ccc2c1Oc1ncccc1-c1ccnc(N[C@@H]2CNC[C@H](C)C2)n1 [Example 477, N-(2-Fluoro-6-methyl-5-((3-(2-(((3S,5R)-5-methylpiperidin-3-yl)amino)pyrimidin-4-yl)pyridin-2-yl)oxy)naphthalen-1-yl)-1-(2-fluorophenyl)methanesulfonamide]",7
3,"Cc1cc(NS(=O)(=O)CCC(F)(F)F)c2ccccc2c1Oc1ncccc1-c1ccnc(N[C@H]2CCCNC2)n1 [Example 478, (S)-3,3,3-Trifluoro-N-(3-methyl-4-((3-(2-(piperidin-3-ylamino)pyrimidin-4-yl)pyridin-2-yl)oxy)naphthalen-1-yl)propane-1-sulfonamide]",118
4,"Cc1ccc2c(NS(=O)(=O)Cc3ccccc3)cccc2c1Oc1ncccc1-c1ccnc(N[C@@H]2CNC[C@H](C)C2)n1 [Example 479, N-[6-Methyl-5-[[3-[2-[[(3S,5R)-5-methyl-3-piperidyl]amino]pyrimidin-4-yl]-2-pyridyl]oxy]-1-naphthyl]-1-phenyl-methanesulfonamide]",12
5,"Cc1c(F)c(NS(=O)(=O)Cc2ccccc2)c2ccccc2c1Oc1ncccc1-c1ccnc(N[C@H]2CCCNC2)n1 [Example 480, (S)—N-(2-Fluoro-3-methyl-4-((3-(2-(piperidin-3-ylamino)pyrimidin-4-yl)pyridin-2-yl)oxy)naphthalen-1-yl)-1-phenylmethanesulfonamide]",7
6,"Cc1ccc2c(NS(=O)(=O)CCC(F)(F)F)cccc2c1Oc1ncccc1-c1ccnc(N[C@@H]2CNC[C@H](C)C2)n1 [Example 481, 3,3,3-Trifluoro-N-(6-methyl-5-((3-(2-(((3S,5R)-5-methylpiperidin-3-yl)amino)pyrimidin-4-yl)pyridin-2-yl)oxy)naphthalen-1-yl)propane-1-sulfonamide]",70
7,"Cc1c(F)c(NS(=O)(=O)CCC(F)(F)F)c2ccccc2c1Oc1ncccc1-c1ccnc(N[C@H]2CCCNC2)n1 [Example 482, (S)-3,3,3-Trifluoro-N-(2-fluoro-3-methyl-4-((3-(2-(piperidin-3-ylamino)pyrimidin-4-yl)pyridin-2-yl)oxy)naphthalen-1-yl)propane-1-sulfonamide]",65
8,"Cc1c(F)c(NS(=O)(=O)CCC(F)(F)F)c2ccccc2c1Oc1ncccc1-c1ccnc(N[C@H]2CC[C@H](N)CC2)n1 [Example 483, N-(4-((3-(2-(((1r,4r)-4-Aminocyclohexyl)amino)pyrimidin-4-yl)pyridin-2-yl)oxy)-2-fluoro-3-methylnaphthalen-1-yl)-3,3,3-trifluoropropane-1-sulfonamide]",146
9,"Cc1ccc2c(NS(=O)(=O)CCC(C)(F)F)c(F)ccc2c1Oc1ncccc1-c1ccnc(N[C@@H]2CNC[C@H](C)C2)n1 [Example 485, 3,3-Difluoro-N-[2-fluoro-6-methyl-5-[[3-[2-[[(3S,5R)-5-methyl-3-piperidyl]amino]pyrimidin-4-yl]-2-pyridyl]oxy]-1-naphthyl]butane-1-sulfonamide hydrochloride]",6
10,"CCC(F)(F)CS(=O)(=O)Nc1c(F)ccc2c(Oc3ncccc3-c3ccnc(N[C@@H]4CNC[C@H](C)C4)n3)c(C)ccc12 [Example 486, 2,2-Difluoro-N-[2-fluoro-6-methyl-5-[[3-[2-[[(3S,5R)-5-methyl-3-piperidyl]amino]pyrimidin-4-yl]-2-pyridyl]oxy]-1-naphthyl]butane-1-sulfonamide hydrochloride]",3
11,"Cc1ccc2c(NS(=O)(=O)CC3(F)CC3)c(F)ccc2c1Oc1ncccc1-c1ccnc(N[C@@H]2CNC[C@H](C)C2)n1 [Example 487, N-(2-Fluoro-6-methyl-5-((3-(2-(((3S,5R)-5-methylpiperidin-3-yl)amino)pyrimidin-4-yl)pyridin-2-yl)oxy)naphthalen-1-yl)-1-(1-fluorocyclopropyl)methanesulfonamide hydrochloride]",9
12,"Cc1ccc2c(NS(=O)(=O)Cc3ccccn3)c(F)ccc2c1Oc1ncccc1-c1ccnc(N[C@H]2CCCNC2)n1 [Example 494, (S)—N-(2-Fluoro-6-methyl-5-((3-(2-(piperidin-3-ylamino)pyrimidin-4-yl)pyridin-2-yl)oxy)naphthalen-1-yl)-1-(pyridin-2-yl)methanesulfonamide hydrochloride]",12.5

# Test system: cells
# Assay: not given
# Conditions: high levels of 4μ8C; cited from earlier work
row,Structure (SMILES),toxicity in cells
1,Cc1cc(=O)oc2c(C=O)c(O)ccc12 [Example 4μ8C],no measurable toxicity
